From patent US4637999A, “Substituted cephalosporins as anti-inflammatory and antidegenerative agents” (Merck & Co., Inc., priority 1983, dated 1987) come the findings set out here.

One may read the pIC50 as the negative decadic logarithm of the IC50, by convention in mol/L. Low values mean a large IC50, high ones a small IC50.

pIC50: −log10 of the molar value. Like-named read-outs stand apart in the source and are kept apart here.

The assay concerns the target T1, Human Polymorphonuclear Leukocyte Elastase (Homo sapiens, UniProt P08246).
T1 sequence (P08246 30-267): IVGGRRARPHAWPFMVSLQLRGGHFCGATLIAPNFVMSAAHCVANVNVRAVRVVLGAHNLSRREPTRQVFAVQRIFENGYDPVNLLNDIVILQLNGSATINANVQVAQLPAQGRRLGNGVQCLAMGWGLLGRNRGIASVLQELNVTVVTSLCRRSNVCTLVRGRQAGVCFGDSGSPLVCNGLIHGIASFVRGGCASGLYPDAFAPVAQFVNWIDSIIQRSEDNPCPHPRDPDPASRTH
The experiment in a line: biochemical. As to conditions: for IC50: 50% inhibition of enzyme activity 2 minutes after zero time, crude PMN extract, 0.2 mM Boc-AAPAN, pH 7.5, 410 mμ, read-out: ED50 (the source's name) (converted).

In the case of `CC(=O)OCC1=C(C(=O)OC(C)(C)C)N2C(=O)C(OC(=O)Cc3ccccc3)C2SC1` (centres unmarked) [R1=OCOCH2 .phi., B=OtBu], the pIC50 is 5.17.

For the molecule `COC(=O)c1ccc(COC(=O)C2=C(COC(C)=O)CSC3C(OC)C(=O)N23)cc1` (centres unmarked) [R1=OCH3, B=OCH2 .phi.(p-COOCH3)], the IC50 was 0.689 µM.

Consider `COC1C(=O)N2C(C(=O)OCC=C(C)C)=C(COC(C)=O)CSC12` (centres unmarked) [R1=OCH3, B=OCH2 CHC(CH3)2], for which the IC50 was 2.81 µM.

For the molecule `COC(=O)CCCOC(=O)C1=C(COC(C)=O)CSC2C(OC)C(=O)N12` (centres unmarked) [R1=OCH3, B=O(CH2)3 COOCH3], the IC50 was 1.29 µM.

`CO[C@H]1C(=O)N2C(C(=O)OC(C)(C)C)=C(COC(C)=O)CS[C@H]12` [R1=OCH3, B=OtBu, t-Butyl 3-acetyloxymethyl-7α-methoxy-8-oxo-5-thia-1-azabicyclo(4.2.0)oct-2-ene-2-carboxylate]: the IC50 was 10.2 µM.

Regarding `COC(=O)C1=C(COC(C)=O)CSC2C(OC(=O)c3ccccc3)C(=O)N12` (centres unmarked) [R1=OCO.phi., B=OCH3], the IC50 is 12.8 µM.

Consider `CC(=O)OCC1=C(C(=O)OCc2ccccc2)N2C(=O)C(OC=O)C2SC1` (centres unmarked) [R1=OCHO, B=OCH2 .phi.], for which the IC50 is 5.11 µM.

Regarding `COC(=O)C1=C(COC(C)=O)CSC2C(OC=O)C(=O)N12` (centres unmarked) [R1=OCHO, B=OCH3], the IC50 is 9.51 µM.

Take `COC(=O)C1=C(COC(C)=O)CSC2C(OC)C(=O)N12` (centres unmarked) [R1=OCH3, B=OCH3]: the IC50 was 8.3 µM.

Take `COC(=O)C1=C(COC(C)=O)CSC2C(OC(=O)Cc3ccccc3)C(=O)N12` (centres unmarked) [R1=OCOCH2 .phi., B=OCH3]: the pIC50 is 5.01.

On to `CCOC(=O)COC(=O)C1=C(COC(C)=O)CSC2C(OC)C(=O)N12` (stereo not drawn) [R1=OCH3, B=OCH2 COOC2 H5, Ethoxycarbonylmethyl 3-acetyloxymethyl-7α-methoxy-8-oxo-5-thia-1-azabicyclo[4.2.0]oct-2-ene-2-carboxylate], for which the IC50 was 1.07 µM.
